≈ marks a conversion by molar mass, not a printed value. Read-outs that look alike come from different tables or passages of the source.
Assays:
[1] = tested on: Streptococcus pyogenes A 561; assay: serial dilution liquid medium MIC, Streptococcus pyogenes A 561; format: cell-based; details: A561, 24 hours at 37° C., read-out: minimum inhibiting concentration (MIC)
Experimental: (§1) The method was a serial dilution of liquid medium test wherein a series of tubes were prepared containing the same amount of sterile nutritive medium and increasing amounts of the test product was distributed in each tube. The tubes were then seeded with a bacterial strain and incubated for 24 hours in an oven at 37° C. The degree of inhibition was determined by transillumination to determine the minimum inhibiting concentration (MIC) express in μg/ml and the results are reported in the following Tables.

[2] = tested on: Streptococcus faecalis 5432; assay: serial dilution liquid medium MIC, Streptococcus faecalis 5432; format: cell-based; details: Enterococcus faecalis, 24 hours at 37° C., read-out: minimum inhibiting concentration (MIC)
Experimental: as §1

[3] = tested on: Streptococcus faecalis 99 F 74; assay: serial dilution liquid medium MIC, Streptococcus faecalis 99 F 74; format: cell-based; details: Enterococcus faecalis, 99F74, 24 hours at 37° C., read-out: minimum inhibiting concentration (MIC)
Experimental: as §1

[4] = tested on: Staphylococcus aureus UC 1128; assay: serial dilution liquid medium MIC, Staphylococcus aureus UC 1128 pen-resistant; format: cell-based; details: read-out: minimum inhibiting concentration (MIC)
Experimental: as §1

[5] = tested on: Staphylococcus aureus exp. n° 54 146; assay: serial dilution liquid medium MIC, Staphylococcus aureus exp. n° 54 146; format: cell-based; details: Staphylococcus aureus exp. 54 146; 24 hours at 37° C.; read-out: minimum inhibiting concentration (MIC)
Experimental: as §1

[6] = tested on: Staphylococcus aureus No. 54,146; assay: In vivo activity in mice experimentally infected with Staphylococcus aureus No. 54,146; details: groups of 10 mice
Experimental: The test was effected with the compounds of the invention and erythromycin as a reference on groups of 10 mice weighing about 21 g experimentally infected with Staphylococcus aureus No. 54,146 by intraperitoneal administration of 0.5 ml of a 22 hour culture of the said organism in bouillon with a pH of 7 diluted to 1/6 with physiological water. The test compounds were orally administrated to the mice 1,5 and 24 hours after the infection and the mortality on the 8th day was determined.

[7] = tested on: Bacillus subtilis ATCC 6 633; assay: serial dilution liquid medium MIC, Bacillus subtilis ATCC 6 633; format: cell-based; details: ATCC6, 24 hours at 37° C., read-out: minimum inhibiting concentration (MIC)
Experimental: as §1

[8] = tested on: Staphylococcus aureus ATCC 6538; assay: serial dilution liquid medium MIC, Staphylococcus aureus ATCC 6538 Pen-Sensibles; format: cell-based; details: read-out: minimum inhibiting concentration (MIC)
Experimental: as §1

[9] = tested on: Streptococcus faecalis 5435; assay: serial dilution liquid medium MIC, Streptococcus faecalis 5435; format: cell-based; details: Enterococcus faecalis, 24 hours at 37° C., read-out: minimum inhibiting concentration (MIC)
Experimental: as §1

[10] = tested on: Staphylococcus aureus 1061; assay: serial dilution liquid medium MIC, Staphylococcus aureus 1061 pen-sensibles; format: cell-based; details: 24 hours at 37° C., read-out: minimum inhibiting concentration (MIC)
Experimental: as §1

[11] = tested on: Streptococcus pyrogenes A561; assay: In vivo activity in mice experimentally infected with Streptococcus pyrogenes A561; details: dose 0.1 mg oral, 1,5 and 24 hours after infection; groups of 10 male mice
Experimental: In a second test, groups of 10 male mice weighing about 21 g were experimentally infected by an intraperitoneal injection of 0.5 ml of a 22 hour culture of Streptococcus pyrogenes A561 in Todd Hewitt bouillon with a pH of 7 diluted to 1/1000 with physiological water. The compounds of Examples 1 or 5 were administered orally 1,5 and 24 hours after the infection and the number of mice living on the fifth day was determined.

[12] = UC1128, Staphylococcus aureus UC 1128 pen-resistant, 24 hours at 37° C.
[13] = dose 0,5mg oral, 1,5 and 24 hours after infection
[14] = dose 0,25mg oral, 1,5 and 24 hours after infection
[15] = dose 0,75mg oral, 1,5 and 24 hours after infection
[16] = dose 1mg oral, 1,5 and 24 hours after infection
[17] = ATCC6538, Staphylococcus aureus ATCC 6538 Pen-Sensibles, 24 hours at 37° C.
[18] = Staphylococcus aureus, ATCC6538, 24 h

Compound	MIC [1]	MIC [2]	MIC [3]	MIC [4, 12]	MIC [5]	No. of mice living on the 8th day [6, 13]	No. of mice living on the 8th day [6, 14]	No. of mice living on the 8th day [6, 15]	No. of mice living on the 8th day [6, 16]	MIC [7]	MIC [8, 17]	MIC ([4]; Staphylococcus aureus, UC1128, 24 h)	MIC [8, 18]	MIC [9]	MIC [10]	No. of mice alive on 5th day [11]
CCOCCOCON=C1[C@H](C)C[C@@](C)(O)[C@H](O[C@@H]2O[C@H](C)C[C@H](N(C)C)[C@H]2O)[C@@H](C)[C@H](O[C@H]2C[C@@](C)(OC)[C@@H](O)[C@H](C)O2)[C@@H](C)C(=O)O[C@H](CC)[C@@](C)(O)[C@H](O)[C@H]1C [Example 4, 9-[0-(2-ethoxyethoxymethyl)-oxime] of erythromycin]	0.05 µg/mL (≈ 0.0587 µM)	0.5 µg/mL (≈ 0.587 µM)	0.2 µg/mL (≈ 0.235 µM)	3 µg/mL (≈ 3.52 µM)	2 µg/mL (≈ 2.35 µM)	4 mice	0 mice	9 mice	10 mice	0.5 µg/mL (≈ 0.587 µM)	2 µg/mL (≈ 2.35 µM)					
CC[C@H]1OC(=O)[C@H](C)[C@@H](O[C@H]2C[C@@](C)(OC)[C@@H](O)[C@H](C)O2)[C@H](C)[C@@H](O[C@@H]2O[C@H](C)C[C@H](N(C)C)[C@H]2O)[C@](C)(O)C[C@@H](C)C(=NOCCOc2ccc(Cl)cc2)[C@H](C)[C@@H](O)[C@]1(C)O [Example 2, 9-[0-(2-{4-chlorophenoxy}-ethyl)-oxime] of erythromycin]	≤ 0.02 µg/mL	0.1 µg/mL (≈ 0.111 µM)	0.1 µg/mL (≈ 0.111 µM)		0.5 µg/mL (≈ 0.553 µM)					0.2 µg/mL (≈ 0.221 µM)		1 µg/mL (≈ 1.11 µM)	0.1 µg/mL (≈ 0.111 µM)			
CCOCCON=C1[C@H](C)C[C@@](C)(O)[C@H](O[C@@H]2O[C@H](C)C[C@H](N(C)C)[C@H]2O)[C@@H](C)[C@H](O[C@H]2C[C@@](C)(OC)[C@@H](O)[C@H](C)O2)[C@@H](C)C(=O)O[C@H](CC)[C@@](C)(O)[C@H](O)[C@H]1C [Example 3, 9-[0-(2-ethoxyethyl)-oxime] of erythromycin]	0.1 µg/mL (≈ 0.122 µM)	0.2 µg/mL (≈ 0.244 µM)	0.2 µg/mL (≈ 0.244 µM)	1 µg/mL (≈ 1.22 µM)	0.5 µg/mL (≈ 0.609 µM)	7 mice		9 mice	9 mice	0.2 µg/mL (≈ 0.244 µM)	0.5 µg/mL (≈ 0.609 µM)					
CC[C@H]1OC(=O)[C@H](C)[C@@H](O[C@H]2C[C@@](C)(OC)[C@@H](O)[C@H](C)O2)[C@H](C)[C@@H](O[C@@H]2O[C@H](C)C[C@H](N(C)C)[C@H]2O)[C@](C)(O)C[C@@H](C)C(=NOCC2OCCO2)[C@H](C)[C@@H](O)[C@]1(C)O [Example 30, 9-[0-{(1,3-dioxolan-2-yl)-methyl}-oxime] of erythromycin]	0.05 µg/mL (≈ 0.0599 µM)	0.4 µg/mL (≈ 0.479 µM)	0.2 µg/mL (≈ 0.24 µM)	0.6 µg/mL (≈ 0.719 µM)	0.4 µg/mL (≈ 0.479 µM)	7 mice	2 mice	10 mice						2 µg/mL (≈ 2.4 µM)	0.4 µg/mL (≈ 0.479 µM)	
CC[C@H]1OC(=O)[C@H](C)[C@@H](O[C@H]2C[C@@](C)(OC)[C@@H](O)[C@H](C)O2)[C@H](C)[C@@H](O[C@@H]2O[C@H](C)C[C@H](N(C)C)[C@H]2O)[C@](C)(O)C[C@@H](C)C(=NOCOC)[C@H](C)[C@@H](O)[C@]1(C)O [Example 33, 9-[O-(methoxymethyl)-oxime] of erythromycin]	0.02 µg/mL (≈ 0.0252 µM)	0.1 µg/mL (≈ 0.126 µM)	0.1 µg/mL (≈ 0.126 µM)	0.4 µg/mL (≈ 0.504 µM)	0.2 µg/mL (≈ 0.252 µM)	10 mice	7 mice							0.2 µg/mL (≈ 0.252 µM)	0.1 µg/mL (≈ 0.126 µM)	
CC[C@H]1OC(=O)[C@H](C)[C@@H](O[C@H]2C[C@@](C)(OC)[C@@H](O)[C@H](C)O2)[C@H](C)[C@@H](O[C@@H]2O[C@H](C)C[C@H](N(C)C)[C@H]2O)[C@](C)(O)C[C@@H](C)C(=NOCCN(C)C)[C@H](C)[C@@H](O)[C@]1(C)O [Example 5, 9-[0-(2-dimethylaminoethyl)-oxime] of erythromycin]	≤ 0.02 µg/mL	0.05 µg/mL (≈ 0.061 µM)	0.05 µg/mL (≈ 0.061 µM)	1 µg/mL (≈ 1.22 µM)	1 µg/mL (≈ 1.22 µM)	8 mice	2 mice	10 mice		0.5 µg/mL (≈ 0.61 µM)	1 µg/mL (≈ 1.22 µM)					10 mice
CC[C@H]1OC(=O)[C@H](C)[C@@H](O[C@H]2C[C@@](C)(OC)[C@@H](O)[C@H](C)O2)[C@H](C)[C@@H](O[C@@H]2O[C@H](C)C[C@H](N(C)C)[C@H]2O)[C@](C)(O)C[C@@H](C)C(=NOC(C)CN(C)C)[C@H](C)[C@@H](O)[C@]1(C)O (stereo partly shown) [Example 36, 9-[O-(2-dimethylamino-1-methyl-ethyl)-oxime] of erythromycin]	≤ 0.01 µg/mL	0.1 µg/mL (≈ 0.12 µM)	0.1 µg/mL (≈ 0.12 µM)	0.5 µg/mL (≈ 0.599 µM)	0.5 µg/mL (≈ 0.599 µM)	9 mice	3 mice	10 mice						0.5 µg/mL (≈ 0.599 µM)	0.2 µg/mL (≈ 0.24 µM)	
CC[C@H]1OC(=O)[C@H](C)[C@@H](O[C@H]2C[C@@](C)(OC)[C@@H](O)[C@H](C)O2)[C@H](C)[C@@H](O[C@@H]2O[C@H](C)C[C@H](N(C)C)[C@H]2O)[C@](C)(O)C[C@@H](C)C(=NOCC(OC)OC)[C@H](C)[C@@H](O)[C@]1(C)O [Example 29, 9-[0-(2,2-dimethoxyethyl)-oxime] of erythromycin]	0.1 µg/mL (≈ 0.119 µM)	0.4 µg/mL (≈ 0.478 µM)	0.2 µg/mL (≈ 0.239 µM)	1 µg/mL (≈ 1.19 µM)	0.4 µg/mL (≈ 0.478 µM)	8 mice	2 mice	9 mice	10 mice					1 µg/mL (≈ 1.19 µM)	0.4 µg/mL (≈ 0.478 µM)	
CC[C@H]1OC(=O)[C@H](C)[C@@H](O[C@H]2C[C@@](C)(OC)[C@@H](O)[C@H](C)O2)[C@H](C)[C@@H](O[C@@H]2O[C@H](C)C[C@H](N(C)C)[C@H]2O)[C@](C)(O)C[C@@H](C)C(=NOCCN2CCOCC2)[C@H](C)[C@@H](O)[C@]1(C)O [Example 35, 9-[O-(2-{morpholin-4-yl}-ethyl)oxime] of erythromycin]	0.05 µg/mL (≈ 0.058 µM)	0.2 µg/mL (≈ 0.232 µM)	0.4 µg/mL (≈ 0.464 µM)	1 µg/mL (≈ 1.16 µM)	0.6 µg/mL (≈ 0.696 µM)	8 mice	2 mice	9 mice	10 mice					1 µg/mL (≈ 1.16 µM)	0.4 µg/mL (≈ 0.464 µM)	
CC[C@H]1OC(=O)[C@H](C)[C@@H](O[C@H]2C[C@@](C)(OC)[C@@H](O)[C@H](C)O2)[C@H](C)[C@@H](O[C@@H]2O[C@H](C)C[C@H](N(C)C)[C@H]2O)[C@](C)(O)C[C@@H](C)C(=NOCOCc2ccccc2)[C@H](C)[C@@H](O)[C@]1(C)O [Example 7, 9-[0-benzyloxymethoxy-oxime] of erythromycin]	0.05 µg/mL (≈ 0.0575 µM)	0.1 µg/mL (≈ 0.115 µM)	0.1 µg/mL (≈ 0.115 µM)	1 µg/mL (≈ 1.15 µM)	0.5 µg/mL (≈ 0.575 µM)					0.1 µg/mL (≈ 0.115 µM)			0.2 µg/mL (≈ 0.23 µM)			

Reference: patent US4349545A, “Novel erythromycin a derivatives” (Roussel Uclaf, priority 1980, dated 1982)
